Results: patent US11839679B2, “Gamma-diketones for treatment and prevention of aging skin and wrinkles” (BioSplice Therapeutics, Inc., priority 2014, dated 2023)

System: fine lines, wrinkles in the outer canthus of the eyes (crow's feet area)
Assay: Panelist self-assessment questionnaire, Example 1
Format: in vivo, human
Details: for Q2 appearance of my skin around either of my eyes, Average Score: Score 1 (Better) to 5 (Worse); for Q4 any discomfort, other than slight tingling, in the treated area during the study, Average Score: Score 1 (No) to 5 (Yes, everyday lasting more than an hour); for Q1 My wrinkles in the eye area have improved, Average Score: Score 1 (Strongly agree) to 5 (Strongly disagree); for Q3 how do you feel about the treated area surrounding your eyes and the appearance of wrinkles, Average Score: Score 1 (Very Satisfied) to 5 (Very Dissatisfied); for Q2 appearance of my skin around either of my eyes, % Responders Score 1: Score 1 = Better; for Q4 any discomfort, other than slight tingling, in the treated area during the study, % Responders Score 1: Score 1 = No; for Q1 My wrinkles in the eye area have improved, % Responders Score 1: Score 1 = Strongly agree; for Q3 how do you feel about the treated area surrounding your eyes and the appearance of wrinkles, % Responders Score 1: Score 1 = Very Satisfied; for Q1 My wrinkles in the eye area have improved, % Responders Score 2: Score 2 = Agree; for Q2 appearance of my skin around either of my eyes, % Responders Score 2: Score 2 = Little better; for Q3 how do you feel about the treated area surrounding your eyes and the appearance of wrinkles, % Responders Score 2: Score 2 = Satisfied; for Q4 any discomfort, other than slight tingling, in the treated area during the study, % Responders Score 2: Score 2 = Yes, occasional discomfort lasting less than an hour; for Q1 My wrinkles in the eye area have improved, % Responders Score 3: Score 3 = Neither agree or disagree
Experimental: Three groups of women were recruited to evaluate and compare the efficacy of three anti-aging test products (targeting the periorbital eye area) intended to reduce the appearance of fine lines, wrinkles in the outer canthus of the eyes (crow's feet area) over a 12 week period. Wrinkle assessment was conducted instrumentally using a Visioscan image analysis system. Effectiveness of the test product was evaluated using panelist self-assessment via questionnaire responses comprised of 3-4 questions (Q1, Q2, Q3 & Q4). Each stage in the progression of treatments was photographically documented using a High Resolution Scientifically Matched Photography technique. Image analysis was utilized to quantify changes in fine lines and crow's feet condition observed in the Scientifically Matched Photographs.
Subject Selection: • Number: Six subjects (two per group) to complete the study. • Sex: Females • Race: Caucasian/Asian/Hispanic • Age Range: 40 through 60 years old
Test samples: • Topical 0.15% of Compound #222 in Oil (a 50/50 mixture of • Propylene Glycol Dicaprylate/Dicaprate and Caprylic/Capric Triglyceride) (Cohort 1) • Topical 0.15% of Compound #222 in PEG400 (Cohort 2) • Topical 0.05% of Compound #222 in PEG400 (Cohort 3)
All subjects were instructed to use the test material once a day, as part of their daily skin care routine. Immediately following baseline evaluations, the subjects were issued the product with the following instructions:
GROUP 1—Compound #222 Topical 0.15% in oil (Cohort 1): The subjects were instructed to hold the bottle at an angle such that the roller-ball was at bottom and apply the roller-ball to the periorbital area, including the crow's feet area, 2-3 times, starting from the area under the eye (and above the cheekbone) and moving up towards the outer tip of the eye-brow. After 2-3 rolls, they were able to see wetness on the treated area. This procedure was repeated for the other eye.
GROUPS 2 & 3 Compound #222 Topical 0.15% in PEG (Cohort 2) & Compound #222 Topical 0.05% in PEG (Cohort 3): The subjects were instructed to hold the dispenser upright with one hand and with the tip of the index finger on the pump (similar to holding a spray container), pour a small amount of the product into the palm of their other hand by pumping once or twice. The product was then applied on to the periorbital area, including the crow's feet area, of both eyes with their index finger.
[…] After acclimating to ambient conditions, High Resolution Scientifically Matched Photographs were be taken and biophysical measurements (Surface Evaluation of Living Skin via Visioscan) were repeated using the standard template to identify test sites on the face. In addition (during the acclimation period) all participants were be asked to fill out a self-assessment questionnaire.
The source data was Visioscan and PhotoGrammetrix Image Analysis readings along with subjective assessments, which were totaled and reported as average scores. Photographs were placed side by side as to compare the photographs of before and after application of the test product in the eye area. Wrinkle reduction analysis source data consisted of crow's feet area quantification in relative units (px), collected at baseline and, the week 2, 4, 8 and 12 evaluations. The data obtained via Visioscan and from PhotoGrammetrix Image Analysis was quoted as % differences from baseline at each of the previously described time points. A paired t-test analysis was conducted in order to compare the results of post test product application measurements to baseline measurements where applicable. Statistical significance was established if p≤(α=0.05) was calculated.

[1] = Day 7, Topical 0.05% in PEG (Cohort 3)
[2] = Day 7, Topical 0.15% in Oil (Cohort 1)
[3] = Day 7, Topical 0.15% in PEG (Cohort 2)
[4] = Day 14, Topical 0.05% in PEG (Cohort 3)
[5] = Day 14, Topical 0.15% in Oil (Cohort 1)
[6] = Day 14, Topical 0.15% in PEG (Cohort 2)

With `O=C(CCC(=O)c1ccc2c(c1)OCO2)c1ccccc1` [#222] the “Q2 appearance of my skin around either of my eyes, Average Score” value (“Q2 appearance … Average Score” below) [1] was 1.50, the “Q4 any discomfort, other than slight tingling, in the treated area during the study, Average Score” value (shortened to “Q4 any discomfort … Average Score”) [1] was 1.00 and the “Q1 My wrinkles in the eye area have improved, Average Score” value (shortened to “Q1 My wrinkles … Average Score”) [1] was 2.00. For the same molecule, the “Q3 how do you feel about the treated area surrounding your eyes and the appearance of wrinkles, Average Score” value [1] was 2.00, the “Q2 appearance … Average Score” value [2] was 2.50 and the “Q4 any discomfort … Average Score” value [2] was 1.50. The “Q1 My wrinkles … Average Score” value [2] was 3.50, the “Q3 how do you feel about the treated area surrounding your eyes and the appearance of wrinkles, Average Score” value [2] was 2.50 and the “Q2 appearance … Average Score” value [3] was 2.50. For the same molecule, the “Q4 any discomfort … Average Score” value [3] was 1.50, the “Q1 My wrinkles … Average Score” value [3] was 3.50 and the “Q3 how do you feel about the treated area surrounding your eyes and the appearance of wrinkles, Average Score” value [3] was 2.50. For the same molecule, the “Q2 appearance … Average Score” value [4] was 1.50, the “Q4 any discomfort … Average Score” value [4] was 1.00 and the “Q1 My wrinkles … Average Score” value [4] was 1.50. The “Q3 how do you feel about the treated area surrounding your eyes and the appearance of wrinkles, Average Score” value [4] was 1.50, the “Q2 appearance … Average Score” value [5] was 2.50 and the “Q4 any discomfort … Average Score” value [5] was 1.50. The “Q1 My wrinkles … Average Score” value [5] was 3.00, the “Q3 how do you feel about the treated area surrounding your eyes and the appearance of wrinkles, Average Score” value [5] was 2.00 and the “Q2 appearance … Average Score” value [6] was 2.50. For the same molecule, the “Q4 any discomfort … Average Score” value [6] was 2.50, the “Q1 My wrinkles … Average Score” value [6] was 3.00 and the “Q3 how do you feel about the treated area surrounding your eyes and the appearance of wrinkles, Average Score” value [6] was 3.00. The “Q2 appearance of my skin around either of my eyes, % Responders Score 1” value (“Q2 appearance … % Responders Score 1” below) [1] was 50%, the “Q2 appearance … % Responders Score 1” value [2] was 0% and the “Q2 appearance … % Responders Score 1” value [3] was 0%. For the same molecule, the “Q2 appearance … % Responders Score 1” value [4] was 50%, the “Q2 appearance … % Responders Score 1” value [5] was 0% and the “Q2 appearance … % Responders Score 1” value [6] was 0%. For the same molecule, the “Q4 any discomfort, other than slight tingling, in the treated area during the study, % Responders Score 1” value (from here on “Q4 any discomfort … % Responders Score 1”) [1] was 100%, the “Q4 any discomfort … % Responders Score 1” value [2] was 50% and the “Q4 any discomfort … % Responders Score 1” value [3] was 50%. The “Q4 any discomfort … % Responders Score 1” value [4] was 100%, the “Q4 any discomfort … % Responders Score 1” value [5] was 50% and the “Q4 any discomfort … % Responders Score 1” value [6] was 50%. For the same molecule, the “Q1 My wrinkles in the eye area have improved, % Responders Score 1” value (“Q1 My wrinkles … % Responders Score 1” for short) [1] was 0%, the “Q1 My wrinkles … % Responders Score 1” value [2] was 0% and the “Q1 My wrinkles … % Responders Score 1” value [3] was 0%. For the same molecule, the “Q1 My wrinkles … % Responders Score 1” value [4] was 50%, the “Q1 My wrinkles … % Responders Score 1” value [5] was 0% and the “Q1 My wrinkles … % Responders Score 1” value [6] was 0%. The “Q3 how do you feel about the treated area surrounding your eyes and the appearance of wrinkles, % Responders Score 1” value [1] was 50%, the “Q3 how do you feel about the treated area surrounding your eyes and the appearance of wrinkles, % Responders Score 1” value [2] was 0% and the “Q3 how do you feel about the treated area surrounding your eyes and the appearance of wrinkles, % Responders Score 1” value [3] was 0%. For the same molecule, the “Q3 how do you feel about the treated area surrounding your eyes and the appearance of wrinkles, % Responders Score 1” value [4] was 50%, the “Q3 how do you feel about the treated area surrounding your eyes and the appearance of wrinkles, % Responders Score 1” value [5] was 50% and the “Q3 how do you feel about the treated area surrounding your eyes and the appearance of wrinkles, % Responders Score 1” value [6] was 0%. For the same molecule, the “Q1 My wrinkles in the eye area have improved, % Responders Score 2” value (from here on “Q1 My wrinkles … % Responders Score 2”) [1] was 100%, the “Q1 My wrinkles … % Responders Score 2” value [2] was 50% and the “Q1 My wrinkles … % Responders Score 2” value [3] was 0%. For the same molecule, the “Q1 My wrinkles … % Responders Score 2” value [4] was 50%, the “Q1 My wrinkles … % Responders Score 2” value [5] was 50% and the “Q1 My wrinkles … % Responders Score 2” value [6] was 50%. The “Q2 appearance of my skin around either of my eyes, % Responders Score 2” value (from here on “Q2 appearance … % Responders Score 2”) [1] was 50%, the “Q2 appearance … % Responders Score 2” value [2] was 50% and the “Q2 appearance … % Responders Score 2” value [3] was 50%. The “Q2 appearance … % Responders Score 2” value [4] was 50%, the “Q2 appearance … % Responders Score 2” value [5] was 50% and the “Q2 appearance … % Responders Score 2” value [6] was 50%. For the same molecule, the “Q3 how do you feel about the treated area surrounding your eyes and the appearance of wrinkles, % Responders Score 2” value [1] was 0%, the “Q3 how do you feel about the treated area surrounding your eyes and the appearance of wrinkles, % Responders Score 2” value [2] was 50% and the “Q3 how do you feel about the treated area surrounding your eyes and the appearance of wrinkles, % Responders Score 2” value [3] was 50%. The “Q3 how do you feel about the treated area surrounding your eyes and the appearance of wrinkles, % Responders Score 2” value [4] was 50%, the “Q3 how do you feel about the treated area surrounding your eyes and the appearance of wrinkles, % Responders Score 2” value [5] was 0% and the “Q3 how do you feel about the treated area surrounding your eyes and the appearance of wrinkles, % Responders Score 2” value [6] was 50%. For the same molecule, the “Q4 any discomfort, other than slight tingling, in the treated area during the study, % Responders Score 2” value (shortened to “Q4 any discomfort … % Responders Score 2”) [1] was 0%, the “Q4 any discomfort … % Responders Score 2” value [2] was 50% and the “Q4 any discomfort … % Responders Score 2” value [3] was 50%. The “Q4 any discomfort … % Responders Score 2” value [4] was 0%, the “Q4 any discomfort … % Responders Score 2” value [5] was 50% and the “Q4 any discomfort … % Responders Score 2” value [6] was 0%. The “Q1 My wrinkles in the eye area have improved, % Responders Score 3” value (from here on “Q1 My wrinkles … % Responders Score 3”) [1] was 0%, the “Q1 My wrinkles … % Responders Score 3” value [2] was 0% and the “Q1 My wrinkles … % Responders Score 3” value [3] was 50%. For the same molecule, the “Q1 My wrinkles … % Responders Score 3” value [4] was 0%, the “Q1 My wrinkles … % Responders Score 3” value [5] was 0% and the “Q1 My wrinkles … % Responders Score 3” value [6] was 0%.
